Source: PubChem BioAssay (NCI)
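Briefly, cells in 96-well plates were exposed to five compound concentrations for 48 h, and endpoints were estimated by linear interpolation. At the GI50, growth is halved. TGI denotes the concentration required for complete inhibition of growth.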

Tests used:
Assay in all cases: NCI-60 cell line screen, 48 h
[1] = tested on: NCI-H460 lung
[2] = tested on: SK-MEL-2 melanoma
[3] = tested on: PC-3 prostate
[4] = tested on: OVCAR-4 ovarian
[5] = tested on: SR leukemia
[6] = tested on: NCI-H23 lung
[7] = tested on: IGROV1 ovarian
[8] = tested on: SF-268 CNS
[9] = tested on: HCC-2998 colon
[10] = tested on: SN12C renal
[11] = tested on: SK-OV-3 ovarian
[12] = tested on: RXF 393 renal
[13] = tested on: CCRF-CEM leukemia
[14] = tested on: T-47D breast
[15] = tested on: HOP-62 NSCLC
[16] = tested on: NCI/ADR-RES ovarian
[17] = tested on: UACC-257 melanoma
[18] = tested on: HT29 colon
[19] = tested on: HS 578T breast
[20] = tested on: MCF7 breast
[21] = tested on: NCI-H522 lung
[22] = tested on: SNB-19 CNS
[23] = tested on: DU-145 prostate
[24] = tested on: NCI-H226 lung
[25] = tested on: COLO 205 colon
[26] = tested on: A549 NSCLC
[27] = tested on: SF-295 CNS
[28] = tested on: K-562 leukemia
[29] = tested on: MDA-MB-435
[30] = tested on: KM12 colon
[31] = tested on: RPMI-8226 leukemia
[32] = tested on: U251 CNS
[33] = tested on: MALME-3M melanoma
[34] = tested on: SW-620 colon
[35] = tested on: HL-60(TB) leukemia
[36] = tested on: 786-0 renal
[37] = tested on: HOP-92 NSCLC
[38] = tested on: ACHN renal
[39] = tested on: A498 renal
[40] = tested on: MOLT-4 leukemia
[41] = tested on: UACC-62 melanoma
[42] = tested on: CAKI-1 renal
[43] = tested on: SK-MEL-5 melanoma
[44] = tested on: OVCAR-5 ovarian
[45] = tested on: HCT-15 colon
[46] = tested on: SNB-75 CNS
[47] = tested on: LOX IMVI melanoma
[48] = tested on: TK-10 renal
[49] = tested on: MDA-MB-231 breast
[50] = tested on: HCT-116 colon
[51] = tested on: BT-549 breast
[52] = tested on: SK-MEL-28 melanoma
[53] = tested on: SF-539 CNS
[54] = tested on: OVCAR-3 ovarian
[55] = tested on: OVCAR-8 ovarian
[56] = tested on: EKVX NSCLC
[57] = tested on: M14 melanoma
[58] = tested on: UO-31 renal

SMILES: CN(C)C(=O)O[C@@H]1CN[C@@H](C#Cc2cc3ncnc(Nc4ccc(OCc5cccc(F)c5)c(Cl)c4)c3s2)C1
- GI50 [1]: 8.33 µM
- TGI [1]: > 25 µM
- GI50 [2]: > 25 µM
- TGI [2]: > 25 µM
- GI50 [3]: 8.53 µM
- TGI [3]: > 25 µM
- GI50 [4]: > 25 µM
- TGI [4]: > 25 µM
- GI50 [5]: 20.1 µM
- TGI [5]: > 25 µM
- GI50 [6]: > 25 µM
- TGI [6]: > 25 µM
- GI50 [7]: 13.1 µM
- TGI [7]: > 25 µM
- GI50 [8]: 14.5 µM
- TGI [8]: > 25 µM
- GI50 [9]: 14.1 µM
- TGI [9]: > 25 µM
- GI50 [10]: 8.01 µM
- TGI [10]: > 25 µM
- GI50 [11]: 0.406 µM
- TGI [11]: > 25 µM
- GI50 [12]: > 20.4 µM
- TGI [12]: > 25 µM
- GI50 [13]: 2.78 µM
- TGI [13]: > 25 µM
- GI50 [14]: 11.2 µM
- TGI [14]: > 25 µM
- GI50 [15]: > 25 µM
- TGI [15]: > 25 µM
- GI50 [16]: > 25 µM
- TGI [16]: > 25 µM
- GI50 [17]: > 25 µM
- TGI [17]: > 25 µM
- GI50 [18]: > 25 µM
- TGI [18]: > 25 µM
- GI50 [19]: > 25 µM
- TGI [19]: > 25 µM
- GI50 [20]: > 25 µM
- TGI [20]: > 25 µM
- GI50 [21]: 2.14 µM
- TGI [21]: > 10.5 µM
- GI50 [22]: > 25 µM
- TGI [22]: > 25 µM
- GI50 [23]: > 25 µM
- TGI [23]: > 25 µM
- GI50 [24]: 9.22 µM
- TGI [24]: > 18.4 µM
- GI50 [25]: > 25 µM
- TGI [25]: > 25 µM
- GI50 [26]: 7.82 µM
- TGI [26]: > 25 µM
- GI50 [27]: > 25 µM
- TGI [27]: > 25 µM
- GI50 [28]: > 25 µM
- TGI [28]: > 25 µM
- GI50 [29]: > 25 µM
- TGI [29]: > 25 µM
- GI50 [30]: 9.85 µM
- TGI [30]: > 25 µM
- GI50 [31]: 7.18 µM
- TGI [31]: > 25 µM
- GI50 [32]: > 21.2 µM
- TGI [32]: > 25 µM
- GI50 [33]: 9.41 µM
- TGI [33]: > 25 µM
- GI50 [34]: > 25 µM
- TGI [34]: > 25 µM
- GI50 [35]: 9.86 µM
- TGI [35]: > 22 µM
- GI50 [36]: 9.48 µM
- TGI [36]: > 21.7 µM
- GI50 [37]: 6.5 µM
- TGI [37]: > 25 µM
- GI50 [38]: 18.9 µM
- TGI [38]: > 25 µM
- GI50 [39]: 5.65 µM
- TGI [39]: > 19.7 µM
- GI50 [40]: 6.73 µM
- TGI [40]: > 21.8 µM
- GI50 [41]: > 25 µM
- TGI [41]: > 25 µM
- GI50 [42]: 5.87 µM
- TGI [42]: > 25 µM
- GI50 [43]: > 25 µM
- TGI [43]: > 25 µM
- GI50 [44]: > 25 µM
- TGI [44]: > 25 µM
- GI50 [45]: > 25 µM
- TGI [45]: > 25 µM
- GI50 [46]: > 19.4 µM
- TGI [46]: > 25 µM
- GI50 [47]: > 25 µM
- TGI [47]: > 25 µM
- GI50 [48]: 4.7 µM
- TGI [48]: > 25 µM
- GI50 [49]: 6.6 µM
- TGI [49]: > 20 µM
- GI50 [50]: > 25 µM
- TGI [50]: > 25 µM
- GI50 [51]: 7.93 µM
- TGI [51]: > 21.4 µM
- GI50 [52]: > 25 µM
- TGI [52]: > 25 µM
- GI50 [53]: 8.58 µM
- TGI [53]: > 25 µM
- GI50 [54]: 7.51 µM
- TGI [54]: > 25 µM
- GI50 [55]: 18.7 µM
- TGI [55]: > 25 µM
- GI50 [56]: 5.14 µM
- TGI [56]: > 23.2 µM
- GI50 [57]: > 25 µM
- TGI [57]: > 25 µM
- GI50 [58]: 5.22 µM
- TGI [58]: > 20.9 µM
